Results taken from ChEMBL document CHEMBL4261502, “Histone lysine methyltransferase structure activity relationships that allow for segregation of G9a inhibition and anti-Plasmodium activity” (Medchemcomm, 2017).

What follows are molecules tested on Plasmodium falciparum (assay: Antiplasmodial activity against Plasmodium falciparum 3D7 after 3 days by SYBR green1 dye based assay). Details: 3D7, 72 h.
Assay type: functional, organism-based

SMILES	IC50 [nM]
COc1cc2c(NC3CCN(C)CC3)nc(N3CCCN(C)CC3)nc2cc1OCCCN1CCCC1	> 2000
COc1cc2c(NC3CCN(C)CC3)nc(N3CCCN(C)CC3)nc2cc1OCCCN1CCCCC1	> 2000
COc1cc2c(NC3CCN(C)CC3)nc(N3CCCN(C)CC3)nc2cc1OCc1ccccc1	43
COc1cc2c(NC3CCN(C)CC3)nc(N3CCCN(C)CC3)nc2cc1OCCCN(C)C	> 2000

Results, then the molecule that gave them:

IC50 [nM]	SMILES
> 2000	COc1cc2c(NC3CCN(C)CC3)nc(N3CCCN(C)CC3)nc2cc1OCCN(C)C
43	COc1cc2nc(N3CCCN(C)CC3)nc(NC3CCN(Cc4ccccc4)CC3)c2cc1OC
> 300	COc1cc2nc(N3CCN(C)CC3)nc(NC3CCN(C)CC3)c2cc1OC
> 300	COc1cc2nc(N3CCCN(C)CC3)nc(NC3CCN(C)CC3)c2cc1OC
